Experimental data published in the NIST ThermoML archive (doi:10.1021/acs.jced.8b00433).

Test: xn = mol fraction of the nth substance listed
Details: Gas, Buoyancy - hydrostatic balance with magnetic suspension - one sinker

C [methane] + O=C=O
Details	mass density [kg/m3]
313.09 K, 17999 kPa, x2 = 0.2017	188.702
313.1 K, 4001 kPa, x2 = 0.8988	75.134
313.1 K, 4996 kPa, x2 = 0.3997	58.587
313.1 K, 5996 kPa, x2 = 0.7985	114.567
313.1 K, 7003 kPa, x2 = 0.7985	142.512
313.1 K, 7006 kPa, x2 = 0.6015	110.298
313.11 K, 7997 kPa, x2 = 0.7985	174.464
313.11 K, 10000 kPa, x2 = 0.6015	177.419
313.11 K, 12001 kPa, x2 = 0.0998	102.596
313.11 K, 14997 kPa, x2 = 0.3997	217.543
313.12 K, 7992 kPa, x2 = 0.8988	206.745
313.12 K, 14996 kPa, x2 = 0.8988	624.636
313.13 K, 4001 kPa, x2 = 0.0998	30.822
313.13 K, 4002 kPa, x2 = 0.6015	56.419
313.13 K, 5003 kPa, x2 = 0.8988	100.174
313.13 K, 6004 kPa, x2 = 0.6015	90.955
313.13 K, 9996 kPa, x2 = 0.7985	256.481
313.13 K, 10003 kPa, x2 = 0.0998	83.788
313.13 K, 11005 kPa, x2 = 0.3997	149.559
313.14 K, 3998 kPa, x2 = 0.3997	45.694
313.14 K, 7995 kPa, x2 = 0.6015	130.852
313.14 K, 11000 kPa, x2 = 0.0998	93.126
313.14 K, 11001 kPa, x2 = 0.2017	110.189
313.14 K, 11001 kPa, x2 = 0.6015	202.91
313.14 K, 15004 kPa, x2 = 0.7985	485.573
313.15 K, 4004 kPa, x2 = 0.7985	68.752
313.15 K, 5996 kPa, x2 = 0.3997	72.099
313.15 K, 11997 kPa, x2 = 0.8988	506.067
313.16 K, 5003 kPa, x2 = 0.7985	90.396
313.16 K, 6996 kPa, x2 = 0.3997	86.285
313.16 K, 18004 kPa, x2 = 0.6015	375.856
313.17 K, 3002 kPa, x2 = 0.0998	22.748
313.17 K, 5002 kPa, x2 = 0.6015	73.052
313.17 K, 5997 kPa, x2 = 0.8988	128.664
313.17 K, 8998 kPa, x2 = 0.6015	153.28
313.17 K, 15002 kPa, x2 = 0.0998	130.663
313.17 K, 18004 kPa, x2 = 0.0998	157.443
313.17 K, 18005 kPa, x2 = 0.7985	560.943
313.18 K, 8998 kPa, x2 = 0.8988	265.242
313.18 K, 9004 kPa, x2 = 0.2017	87.631
313.18 K, 11998 kPa, x2 = 0.6015	229.134
313.18 K, 14996 kPa, x2 = 0.2017	155.927
313.19 K, 5002 kPa, x2 = 0.0998	39.114
313.19 K, 6000 kPa, x2 = 0.0998	47.652
313.19 K, 8998 kPa, x2 = 0.3997	116.64
313.19 K, 9995 kPa, x2 = 0.3997	132.712
313.19 K, 10993 kPa, x2 = 0.7985	305.994
313.19 K, 11992 kPa, x2 = 0.3997	166.169
313.2 K, 3998 kPa, x2 = 0.2017	35.711
313.2 K, 9001 kPa, x2 = 0.0998	74.487
313.2 K, 9003 kPa, x2 = 0.7985	212.239
313.2 K, 10990 kPa, x2 = 0.8988	432.06
313.21 K, 5000 kPa, x2 = 0.2017	45.475
313.21 K, 6999 kPa, x2 = 0.0998	56.348
313.21 K, 8000 kPa, x2 = 0.0998	65.323
313.21 K, 9999 kPa, x2 = 0.8988	344.181
313.21 K, 14995 kPa, x2 = 0.6015	308.146
313.21 K, 17995 kPa, x2 = 0.8988	683.03
313.21 K, 17997 kPa, x2 = 0.3997	264.841
313.22 K, 5999 kPa, x2 = 0.2017	55.518
313.22 K, 6997 kPa, x2 = 0.8988	163.201
313.22 K, 8000 kPa, x2 = 0.2017	76.608
313.22 K, 11998 kPa, x2 = 0.2017	121.576
313.22 K, 12000 kPa, x2 = 0.7985	357.778
313.23 K, 7005 kPa, x2 = 0.2017	65.96
313.24 K, 10003 kPa, x2 = 0.2017	98.786
313.27 K, 8000 kPa, x2 = 0.3997	101.088
333.06 K, 10002 kPa, x2 = 0.2017	88.824
333.07 K, 4003 kPa, x2 = 0.7985	62.105
333.07 K, 11999 kPa, x2 = 0.3997	144.496
333.07 K, 17998 kPa, x2 = 0.2017	166.841
333.08 K, 4997 kPa, x2 = 0.6015	65.944
333.08 K, 5002 kPa, x2 = 0.3997	53.475
333.08 K, 8999 kPa, x2 = 0.2017	79.049
333.08 K, 9003 kPa, x2 = 0.3997	103.555
333.08 K, 15000 kPa, x2 = 0.8988	456.324
333.1 K, 5000 kPa, x2 = 0.0998	36.091
333.11 K, 6004 kPa, x2 = 0.6015	81.338
333.11 K, 11001 kPa, x2 = 0.2017	98.605
333.12 K, 4001 kPa, x2 = 0.6015	51.39
333.12 K, 4003 kPa, x2 = 0.2017	33.068
333.12 K, 6995 kPa, x2 = 0.3997	77.606
333.12 K, 9995 kPa, x2 = 0.3997	116.802
333.12 K, 14999 kPa, x2 = 0.0998	116.773
333.12 K, 18006 kPa, x2 = 0.6015	310.346
333.13 K, 5006 kPa, x2 = 0.8988	88.521
333.13 K, 5996 kPa, x2 = 0.2017	50.919
333.13 K, 7000 kPa, x2 = 0.0998	51.598
333.13 K, 10993 kPa, x2 = 0.8988	274.201
333.13 K, 12000 kPa, x2 = 0.6015	189.959
333.13 K, 14996 kPa, x2 = 0.3997	186.621
333.14 K, 4996 kPa, x2 = 0.2017	41.851
333.14 K, 7998 kPa, x2 = 0.6015	114.282
333.14 K, 10995 kPa, x2 = 0.6015	169.869
333.14 K, 11002 kPa, x2 = 0.3997	130.586
333.14 K, 11997 kPa, x2 = 0.8988	319.541
333.14 K, 14998 kPa, x2 = 0.7985	360.976
333.14 K, 18001 kPa, x2 = 0.0998	140.51
333.15 K, 6001 kPa, x2 = 0.0998	43.781
333.15 K, 8994 kPa, x2 = 0.6015	131.934
333.15 K, 11999 kPa, x2 = 0.0998	92.187
333.15 K, 14994 kPa, x2 = 0.2017	138.03
333.15 K, 14999 kPa, x2 = 0.6015	251.317
333.16 K, 7002 kPa, x2 = 0.6015	97.409
333.16 K, 11003 kPa, x2 = 0.0998	83.984
333.16 K, 12001 kPa, x2 = 0.2017	108.442
333.16 K, 18000 kPa, x2 = 0.7985	447.149
333.16 K, 18001 kPa, x2 = 0.3997	227.522
333.17 K, 4004 kPa, x2 = 0.3997	41.983
333.17 K, 4007 kPa, x2 = 0.8988	67.864
333.17 K, 5002 kPa, x2 = 0.7985	80.565
333.17 K, 7997 kPa, x2 = 0.8988	164.576
333.18 K, 9007 kPa, x2 = 0.7985	170.905
333.18 K, 9999 kPa, x2 = 0.0998	75.751
333.18 K, 12003 kPa, x2 = 0.7985	260.729
333.19 K, 7001 kPa, x2 = 0.8988	136.146
333.19 K, 8000 kPa, x2 = 0.0998	59.549
333.19 K, 8996 kPa, x2 = 0.8988	196.344
333.19 K, 8999 kPa, x2 = 0.0998	67.601
333.19 K, 9999 kPa, x2 = 0.7985	198.595
333.19 K, 10001 kPa, x2 = 0.6015	150.602
333.19 K, 11002 kPa, x2 = 0.7985	228.687
333.2 K, 5991 kPa, x2 = 0.7985	100.196
333.2 K, 6008 kPa, x2 = 0.3997	65.434
333.2 K, 7994 kPa, x2 = 0.7985	145.123
333.2 K, 8002 kPa, x2 = 0.2017	69.464
333.21 K, 9996 kPa, x2 = 0.8988	232.812
333.21 K, 18000 kPa, x2 = 0.8988	552.634
333.22 K, 6999 kPa, x2 = 0.2017	60.167
333.22 K, 7005 kPa, x2 = 0.7985	121.973
333.22 K, 7995 kPa, x2 = 0.3997	90.268
333.24 K, 6001 kPa, x2 = 0.8988	110.997
353.02 K, 2999 kPa, x2 = 0.0998	19.722
353.03 K, 10001 kPa, x2 = 0.6015	135.164
353.05 K, 9004 kPa, x2 = 0.6015	119.448
353.08 K, 12003 kPa, x2 = 0.8988	250.219
353.08 K, 14998 kPa, x2 = 0.2017	125.022
353.09 K, 11999 kPa, x2 = 0.6015	167.978
353.09 K, 17992 kPa, x2 = 0.6015	269.799
353.1 K, 8995 kPa, x2 = 0.8988	165.756
353.1 K, 17997 kPa, x2 = 0.8988	437.7
353.11 K, 12000 kPa, x2 = 0.3997	129.551
353.11 K, 18006 kPa, x2 = 0.7985	362.285
353.12 K, 5997 kPa, x2 = 0.8988	99.468
353.12 K, 6004 kPa, x2 = 0.6015	74.991
353.12 K, 18000 kPa, x2 = 0.3997	201.731
353.13 K, 4000 kPa, x2 = 0.8988	61.9
353.13 K, 6004 kPa, x2 = 0.3997	60.111
353.13 K, 14997 kPa, x2 = 0.3997	165.894
353.14 K, 9003 kPa, x2 = 0.0998	62.172
353.14 K, 14999 kPa, x2 = 0.6015	219.076
353.15 K, 6003 kPa, x2 = 0.7985	90.263
353.15 K, 14995 kPa, x2 = 0.0998	106.161
353.15 K, 14999 kPa, x2 = 0.8988	346.055
353.16 K, 3001 kPa, x2 = 0.6015	35.135
353.16 K, 15004 kPa, x2 = 0.7985	288.885
353.17 K, 9004 kPa, x2 = 0.3997	93.855
353.18 K, 3996 kPa, x2 = 0.7985	56.892
353.18 K, 4002 kPa, x2 = 0.2017	30.584
353.18 K, 4004 kPa, x2 = 0.3997	38.873
353.18 K, 11994 kPa, x2 = 0.7985	214.517
353.22 K, 8998 kPa, x2 = 0.7985	147.521
353.22 K, 17999 kPa, x2 = 0.0998	127.527
353.23 K, 6000 kPa, x2 = 0.0998	40.53
353.24 K, 11994 kPa, x2 = 0.0998	84.225
353.26 K, 6007 kPa, x2 = 0.2017	46.942
353.27 K, 9000 kPa, x2 = 0.2017	72.326
353.28 K, 12001 kPa, x2 = 0.2017	98.585
353.37 K, 17994 kPa, x2 = 0.2017	150.552
